Patent US6777412B2 (priority 1990, dated 2004)
Like-named read-outs stand apart in the source and are kept apart here. Marks after values point to notes of the source that are not given here.

Experiments:
Type in all cases: in vivo
[1] = system: Plasmopara viticola; assay: Foliar fungal disease test on plants: Plasmopara viticola (Pv)
Protocol: (§1) The compounds were tested against a variety of foliar fungal diseases of plants. The technique employed was as follows.
(§2) The plants were grown in John Innes Potting Compost (No.1 or 2) in 4 cm diameter minipots. The test compounds were formulated either by bead milling with aqueous Dispersol T or as a solution in acetone or acetone/ethanol which was diluted to the required concentration immediately before use. For the foliage diseases, the formulations (100 ppm active ingredient except where otherwise indicated) were sprayed onto the foliage and applied to the roots of the plants in the soil. The sprays were applied to maximum retention and the root drenches to a final concentration equivalent to approximately 40 ppm a.i. in dry soil. Tween 20, to give a final concentration of 0.05%, was added when the sprays were applied to cereals.
(§3) For most of the tests the compound was applied to the soil (roots) and to the foliage (by spraying) one or two days before the plant was inoculated with the disease. An exception was the test on Erysiphe graminis in which the plants were inoculated 24 hours before treatment. Foliar pathogens were applied by spray as spore suspensions onto the leaves of test plants. After inoculation, the plants were put into an appropriate environment to allow infection to proceed and then incubated until the disease was ready for assessment. The period between inoculation and assessment varied from four to fourteen days according to the disease and environment.
(§4) The disease control vas recorded by the following grading:
(§5) 3=trace-5% of disease on untreated plants
(§6) 2=6-25% of disease on untreated plants
(§7) 1=26-59% of disease on untreated plants
(§8) 0=60-100% of disease on untreated plants

[2] = system: Erysiphe graminis tritici; assay: Foliar fungal disease test on plants: Erysiphe graminis tritici (Egt)
Protocol: as §1, §2, §3, §4, §5, §6, §7, §8
Egt Erysiphe graminis tritici

[3] = system: Phytophthora infestans lycopersici
[4] = system: Venturia inaequalis; assay: Foliar fungal disease test on plants: Venturia inaequalis (Vi)
Protocol: as §1, §2, §3, §4, §5, §6, §7, §8

[5] = system: Pyricularia oryzae
[6] = system: Septoria nodorum; assay: Foliar fungal disease test on plants: Septoria nodorum (Sn)
Protocol: as §1, §2, §3, §4, §5, §6, §7, §8

[7] = system: Puccinia recondita; assay: Foliar fungal disease test on plants: Puccinia recondita (Pr)
Protocol: as §1, §2, §3, §4, §5, §6, §7, §8

[8] = system: Erysiphe graminis hordei; assay: Foliar fungal disease test on plants: Erysiphe graminis hordei (Egh); conditions: 100 ppm active ingredient foliar spray plus root drench (approx. 40 ppm a.i. in dry soil); plants inoculated 24 hours before treatment
Protocol: as §1, §2, §3, §4, §5, §6, §7, §8
Egh Erysiphe graminis hordei

[9] = 100 ppm active ingredient foliar spray plus root drench (approx. 40 ppm a.i. in dry soil), one or two days before inoculation
[10] = 100 ppm active ingredient foliar spray plus root drench (approx. 40 ppm a.i. in dry soil), plants inoculated 24 hours before treatment

| SMILES | disease control grading, Pv (Plasmopara viticola) ([1]; 10 ppm foliar application only) | disease control grading, Egt (Erysiphe graminis tritici) ([2]; 10 ppm foliar application only) | disease control grading, Pil (Phytophthora infestans lycopersici) ([3]; 10 ppm foliar application only) | disease control grading, Vi (Venturia inaegualis) ([4]; 10 ppm foliar application only) | disease control grading, Po (Pyricularia oryzae) ([5]; 10 ppm foliar application only) | disease control grading, Sn (Septoria nodorum) ([6]; 10 ppm foliar application only) | disease control grading, Pr (Puccinia recondita) ([7]; 100 ppm foliar application only) | disease control grading, Pv (Plasmopara viticola) [1, 9] | disease control grading, Egt (Erysiphe graminis tritici) [2, 10] | disease control grading, Pil (Phytophthora infestans lycopersici) [3, 9] | disease control grading, Vi (Venturia inaegualis) [4, 9] | disease control grading, Po (Pyricularia oryzae) [5, 9] | disease control grading, Sn (Septoria nodorum) [6, 9] | disease control grading, Pr (Puccinia recondita) [7, 9] | disease control grading, Egh (Erysiphe graminis hordei) [8] |
| --- | --- | --- | --- | --- | --- | --- | --- | --- | --- | --- | --- | --- | --- | --- | --- |
| CO/C=C(/C(=O)OC)c1ccccc1Oc1cc(O/N=C(\C)c2ccccc2)ncn1 [403 of Table I] | 4^a (4=no disease) | 0^a (0=60-100% of disease on untreated plants) | 1^a (1=26-59% of disease on untreated plants) | 4^a (4=no disease) | 0^a (0=60-100% of disease on untreated plants) | 0^a (0=60-100% of disease on untreated plants) | 4^b (4=no disease) |  |  |  |  |  |  |  |  |
| CO/C=C(/C(=O)OC)c1ccccc1Oc1cc(OCc2cccnn2)ncn1 [271 of Table I] |  |  |  |  |  |  |  | 0 (0=60-100% of disease on untreated plants) | 3 (3=trace-5% of disease on untreated plants) | 2 (2=6-25% of disease on untreated plants) | 0 (0=60-100% of disease on untreated plants) | 2 (2=6-25% of disease on untreated plants) | 2 (2=6-25% of disease on untreated plants) | 4 (4=no disease) |  |
| CO/C=C(/C(=O)OC)c1ccccc1Oc1cc(OC/C=C/c2ccccc2C#N)ncn1 [395 of Table I] |  |  |  |  |  |  |  | 4 (4=no disease) | 4 (4=no disease) |  | 4 (4=no disease) | 4 (4=no disease) | 3 (3=trace-5% of disease on untreated plants) | 4 (4=no disease) |  |
| CCCCOc1ccccc1Nc1cc(Oc2ccccc2/C(=C\OC)C(=O)OC)ncn1 [402 of Table I] |  |  |  |  |  |  |  | 4 (4=no disease) | 4 (4=no disease) | 3 (3=trace-5% of disease on untreated plants) | 4 (4=no disease) | 0 (0=60-100% of disease on untreated plants) | 4 (4=no disease) | 4 (4=no disease) |  |
| CO/C=C(/C(=O)OC)c1ccccc1Oc1cc(OCc2cccnc2)ncn1 [229 of Table I] |  |  |  |  |  |  |  | 4 (4=no disease) | 4 (4=no disease) | 3 (3=trace-5% of disease on untreated plants) | 4 (4=no disease) | 4 (4=no disease) | 4 (4=no disease) | 4 (4=no disease) |  |
| CO/C=C(/C(=O)OC)c1ccccc1Oc1cc(OCCc2c(F)cccc2Cl)ncn1 [372 of Table I] |  |  |  |  |  |  |  | 4 (4=no disease) |  | 4 (4=no disease) | 4 (4=no disease) | 4 (4=no disease) |  | 4 (4=no disease) | 4 (4=no disease) |
| CO/C=C(/C(=O)OC)c1ccccc1Oc1cc(OCCOc2c(F)cccc2F)ncn1 [382 of Table I] |  |  |  |  |  |  |  | 4 (4=no disease) |  | 4 (4=no disease) | 4 (4=no disease) | 4 (4=no disease) |  | 4 (4=no disease) | 4 (4=no disease) |
| CO/C=C(/C(=O)OC)c1ccccc1Oc1cc(OCc2ccncn2)ncn1 [250 of Table I] |  |  |  |  |  |  |  | 4 (4=no disease) | 4 (4=no disease) |  |  | 2 (2=6-25% of disease on untreated plants) | 4 (4=no disease) |  |  |
| CO/C=C(/C(=O)OC)c1ccccc1Oc1cc(Sc2ccccc2)ncn1 [1 of Table I] |  |  |  |  |  |  |  | 4 (4=no disease) |  | 4 (4=no disease) | 4 (4=no disease) | 4 (4=no disease) |  | 4 (4=no disease) | 4 (4=no disease) |
| CO/C=C(/C(=O)OC)c1ccccc1Oc1cc(OCCc2ccccc2C(F)(F)F)ncn1 [363 of Table I] |  |  |  |  |  |  |  | 4 (4=no disease) |  | 4 (4=no disease) | 4 (4=no disease) | 4 (4=no disease) |  | 4 (4=no disease) | 4 (4=no disease) |
| CO/C=C(/C(=O)OC)c1ccccc1Oc1cc(OC(c2ccccc2)C(F)(F)F)ncn1 (centres unmarked) [371 of Table I] |  |  |  |  |  |  |  | 4 (4=no disease) |  | 0 (0=60-100% of disease on untreated plants) | 4 (4=no disease) | 4 (4=no disease) |  | 4 (4=no disease) | 4 (4=no disease) |
| CO/C=C(/C(=O)OC)c1ccccc1Oc1cc(OCCCc2ccccc2[N+](=O)[O-])ncn1 [361 of Table I] |  |  |  |  |  |  |  | 4 (4=no disease) |  | 4 (4=no disease) | 4 (4=no disease) | 4 (4=no disease) |  | 4 (4=no disease) | 4 (4=no disease) |
| CO/C=C(/C(=O)OC)c1ccccc1Oc1cc(OCCc2c(Cl)cccc2Cl)ncn1 [373 of Table I] |  |  |  |  |  |  |  | 4 (4=no disease) |  | 3 (3=trace-5% of disease on untreated plants) | 4 (4=no disease) | 4 (4=no disease) |  | 4 (4=no disease) | 4 (4=no disease) |
| CO/C=C(/C(=O)OC)c1ccccc1Oc1cc(OCCc2ccccc2OC)ncn1 [365 of Table I] |  |  |  |  |  |  |  | 4 (4=no disease) |  | 4 (4=no disease) | 4 (4=no disease) | 4 (4=no disease) |  | 4 (4=no disease) | 4 (4=no disease) |
| CO/C=C(/C(=O)OC)c1ccccc1Oc1cc(OCCc2c(F)cccc2F)ncn1 [370 of Table I] |  |  |  |  |  |  |  | 4 (4=no disease) |  | 4 (4=no disease) | 4 (4=no disease) | 4 (4=no disease) |  | 4 (4=no disease) | 4 (4=no disease) |
| CO/C=C(/C(=O)OC)c1ccccc1Oc1cc(S(=O)(=O)c2ccccc2)ncn1 [3 of Table I] |  |  |  |  |  |  |  | 4 (4=no disease) |  | 0 (0=60-100% of disease on untreated plants) | 4 (4=no disease) | 2 (2=6-25% of disease on untreated plants) |  | 3 (3=trace-5% of disease on untreated plants) | 0 (0=60-100% of disease on untreated plants) |
| CO/C=C(/C(=O)OC)c1ccccc1Oc1cc(OCCOc2ccccc2C#N)ncn1 [396 of Table I] |  |  |  |  |  |  |  | 4 (4=no disease) | 4 (4=no disease) |  | 3 (3=trace-5% of disease on untreated plants) | 4 (4=no disease) | 4 (4=no disease) | 4 (4=no disease) |  |
| CO/C=C(/C(=O)OC)c1ccccc1Oc1cc(OCCCc2ccccc2)ncn1 [360 of Table I] |  |  |  |  |  |  |  | 4 (4=no disease) |  | 4 (4=no disease) | 4 (4=no disease) | 4 (4=no disease) |  | 4 (4=no disease) | 4 (4=no disease) |
